≈ marks a conversion by molar mass, not a printed value. Read-outs that look alike come from different tables or passages of the source.
Assay: physchem
Method: It was here determined how much influence a mixture of oleic acid and lecithin would put on the solubility of d-alpha-tocopherol. It was determined with changing ratios of the oleic acid to the lecithine how to dissolve d-alpha-tocopherol in 20 mM solution of bile acid.

solubility: high solubility
solubility (20 mm bile acid solution): 2000 µg/mL (≈ 4.64 mM)
Structure (SMILES): Cc1c(C)c2c(c(C)c1O)CC[C@@](C)(CCC[C@H](C)CCC[C@H](C)CCCC(C)C)O2 [d-alpha-tocopherol]

— EP0347843A1, “Vitamine E composition improved in absorption” (Eisai Co., Ltd., priority 1988, dated 1989)
